Key:
[1] = biological target: T1, pyridoxal kinase (PdxK) (Homo sapiens, UniProt O00764); test: steady-state enzyme kinetics ([…] nm), Lineweaver-Burk and secondary plots; assay type: biochemical; parameters: wild-type human recombinant
T1 sequence (O00764 1-312): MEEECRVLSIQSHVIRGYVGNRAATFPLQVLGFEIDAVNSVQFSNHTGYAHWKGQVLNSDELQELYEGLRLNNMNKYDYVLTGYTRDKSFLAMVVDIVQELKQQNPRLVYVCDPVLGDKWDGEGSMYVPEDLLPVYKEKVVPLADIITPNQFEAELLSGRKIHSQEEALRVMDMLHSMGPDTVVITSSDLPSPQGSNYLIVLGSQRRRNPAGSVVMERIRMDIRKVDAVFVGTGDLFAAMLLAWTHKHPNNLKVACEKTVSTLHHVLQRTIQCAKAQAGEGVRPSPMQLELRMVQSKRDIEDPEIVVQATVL

[2] = biological target: T1, pyridoxal kinase (PdxK); test: enzyme activity assay; assay type: biochemical; parameters: human recombinant

Row | Ki [1] [µM] | Compound | enzyme activity assay [2]
1 | 2200 | Cc1ncc(C[n+]2csc(CCO)c2C)c(N)n1 [thiamin] | 
2 | 3300 | Cc1ncc(C[n+]2csc(CCOP(=O)([O-])OP(=O)(O)O)c2C)c(N)n1 [thiamin diphosphate] | 
3 |  | CCCCCCCCCCOC(=O)C[n+]1csc(CCO)c1C [DMHT, 3-decyloxycarbonylmethyl-4-methyl-5-(2-hydroxyethyl) thiazolium] | Figure 2B shows that both compounds affected PdxK activity, supporting the direct interaction of the enzyme

From PMC4515825, “Molecular mechanisms of the non-coenzyme action of thiamin in brain: biochemical, structural and pathway analysis” (Scientific Reports, 2015)
